The text below walks through data of publication PMC4903021 (Organic letters, 2016).

The Km is the concentration of substrate that gives half-maximal velocity.

This assay deals with T1, CazL (Chaetomium globosum, UniProt Q2GWL0).
T1 sequence (Q2GWL0 1-455): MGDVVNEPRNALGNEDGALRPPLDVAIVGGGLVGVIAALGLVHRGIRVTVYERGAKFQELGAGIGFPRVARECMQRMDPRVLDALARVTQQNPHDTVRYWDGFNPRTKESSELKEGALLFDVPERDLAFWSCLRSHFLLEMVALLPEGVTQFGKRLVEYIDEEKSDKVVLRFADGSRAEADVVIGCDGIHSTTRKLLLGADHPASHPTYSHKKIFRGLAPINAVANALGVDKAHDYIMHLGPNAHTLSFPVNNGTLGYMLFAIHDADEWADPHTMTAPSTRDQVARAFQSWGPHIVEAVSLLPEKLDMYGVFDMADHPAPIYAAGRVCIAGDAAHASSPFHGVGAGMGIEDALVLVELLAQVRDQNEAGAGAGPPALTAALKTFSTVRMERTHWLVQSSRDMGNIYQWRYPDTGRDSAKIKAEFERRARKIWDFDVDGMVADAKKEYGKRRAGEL
Nature of the assay: initial velocity kinetics of pyranoquinone formation. The class given is biochemical. Conditions: formation of 5.

In the case of cazaldehyde A [compound 1], the Michaelis constant (Km) is 73 ± 9.93 µM.
